# Test results reported in US7605227B2, “Melanoma antigen peptide analogues” (MannKind Corporation, priority 2005, dated 2009).
# Square brackets hold non-standard residues; d marks the D form. Peptide text beside a SMILES is read from it. Phe(4-F) = N[C@@H](Cc1ccc(F)cc1)C(=O)O
# System: T cell lines against a natural (non-mutated) epitope (SSX-241-49)
# Assay: Cross-reactivity and functional avidity: IFN-gamma from T cell lines against natural SSX-2 41-49 epitope;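 note: peptide analogs tested ex vivo with competent APCs, IFN-gamma in supernatant measured by ELISA, readouts include minimal triggering concentration, peak effect and concentration at peak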
# Type: cell-based, HHD transgenic mice
# Conditions: IFN-gamma from T cell line raised against native SSX-2 41-49; native = 1, lower = more active
row,SMILES,Cross-reactivity and fct avidity (native to analogs)*
1,"CC[C@H](NC(=O)[C@@H](N)CCCCN)C(=O)N[C@@H](CO)C(=O)N[C@@H](CCC(=O)O)C(=O)N[C@@H](CCCCN)C(=O)N[C@H](C(=O)N[C@@H](Cc1ccccc1)C(=O)N[C@@H](Cc1ccc(O)cc1)C(=O)N[C@H](C(=O)O)C(C)C)[C@@H](C)CC [SSX2 41-49 (A42(Abu)), KAbuSEKIFYV]",0.3
2,"CC[C@H](C)[C@H](NC(=O)[C@H](CCCCN)NC(=O)[C@H](CCC(=O)O)NC(=O)[C@H](CO)NC(=O)C(C)(C)NC(=O)[C@@H](N)CCCCN)C(=O)N[C@@H](Cc1ccccc1)C(=O)N[C@@H](Cc1ccc(O)cc1)C(=O)N[C@H](C(=O)O)C(C)C [SSX2 41-49 (A42(Aib)), KAibSEKIFYV]",3
3,"CC[C@H](C)[C@H](NC(=O)[C@H](CCCCN)NC(=O)[C@H](CCC(=O)O)NC(=O)[C@H](CO)NC(=O)[C@H](Cc1ccc2ccccc2c1)NC(=O)[C@@H](N)CCCCN)C(=O)N[C@@H](Cc1ccccc1)C(=O)N[C@@H](Cc1ccc(O)cc1)C(=O)N[C@H](C(=O)O)C(C)C [SSX2 41-49 (A42(Nal-2)), KNal-2SEKIFYV]",3
4,"CCCC[C@H](NC(=O)[C@@H](N)CCCCN)C(=O)N[C@@H](CO)C(=O)N[C@@H](CCC(=O)O)C(=O)N[C@@H](CCCCN)C(=O)N[C@H](C(=O)N[C@@H](Cc1ccccc1)C(=O)N[C@@H](Cc1ccc(O)cc1)C(=O)N[C@H](C(=O)O)C(C)C)[C@@H](C)CC [SSX2 41-49 (A42(Nle)), KNleSEKIFYV]",0.1
5,"CCC[C@H](NC(=O)[C@@H](N)CCCCN)C(=O)N[C@@H](CO)C(=O)N[C@@H](CCC(=O)O)C(=O)N[C@@H](CCCCN)C(=O)N[C@H](C(=O)N[C@@H](Cc1ccccc1)C(=O)N[C@@H](Cc1ccc(O)cc1)C(=O)N[C@H](C(=O)O)C(C)C)[C@@H](C)CC [SSX2 41-49 (A42(Nva)), KNvaSEKIFYV]",0.1
6,CC[C@H](C)[C@H](NC(=O)[C@H](CCCCN)NC(=O)[C@H](CCC(=O)O)NC(=O)[C@H](CO)NC(=O)[C@H](CC(C)C)NC(=O)[C@@H](N)CCCCN)C(=O)N[C@@H](Cc1ccccc1)C(=O)N[C@@H](Cc1ccc(O)cc1)C(=O)N[C@H](C(=O)O)C(C)C [SSX2 41-49 (A42L)],0.03
7,"CC[C@H](C)[C@H](NC(=O)[C@H](CCCCN)NC(=O)[C@H](CCC(=O)O)NC(=O)[C@H](CO)NC(=O)[C@H](CC(C)C)NC(=O)[C@H](N)CCCCN)C(=O)N[C@@H](Cc1ccccc1)C(=O)N[C@@H](Cc1ccc(O)cc1)C(=O)N[C@H](C(=O)O)C(C)C [SSX2 41-49 (K41(D-Lys), A42L)]",10
8,"CC[C@H](C)[C@H](NC(=O)[C@H](CCCCN)NC(=O)[C@H](CCC(=O)O)NC(=O)[C@H](CO)NC(=O)[C@@H](NC(=O)[C@H](N)CCCCN)C(C)C)C(=O)N[C@@H](Cc1ccccc1)C(=O)N[C@@H](Cc1ccc(O)cc1)C(=O)N[C@H](C(=O)O)C(C)C [SSX2 41-49 (K41(D-Lys), A42V)]",10
9,CC[C@H](C)[C@H](NC(=O)[C@H](CCCCN)NC(=O)[C@H](CCC(=O)O)NC(=O)[C@H](CO)NC(=O)[C@H](C)NC(=O)[C@@H](N)Cc1ccc(F)cc1)C(=O)N[C@@H](Cc1ccccc1)C(=O)N[C@@H](Cc1ccc(O)cc1)C(=O)N[C@H](C(=O)O)C(C)C [SSX2 41-49 (K41(Phe-4F))] (H-[Phe(4-F)]ASEKIFYV-OH),3
10,"CC[C@H](C)[C@H](NC(=O)[C@H](CCCCN)NC(=O)[C@H](CCC(=O)O)NC(=O)[C@H](CO)NC(=O)[C@H](CC(C)C)NC(=O)[C@@H](N)Cc1ccccc1)C(=O)N[C@@H](Cc1ccccc1)C(=O)N[C@@H](Cc1ccc(O)cc1)C(=O)N[C@H](C(=O)O)C(C)C [SSX2 41-49 (K41F, A42L)]",0.3
11,"CC[C@H](C)[C@H](NC(=O)[C@H](CCCCN)NC(=O)[C@H](CCC(=O)O)NC(=O)[C@H](CO)NC(=O)[C@H](CCSC)NC(=O)[C@@H](N)Cc1ccccc1)C(=O)N[C@@H](Cc1ccccc1)C(=O)N[C@@H](Cc1ccc(O)cc1)C(=O)N[C@H](C(=O)O)C(C)C [SSX2 41-49 (K41F, A42M)]",3
